What was measured:
[1] = Measurement of viscoelasticity; assay type: physicochemical; conditions: sterile solutions, 37° C., cone 4 cm, CSL500 stress-controlled rheometer; FIG. 1
Experimental: The viscoelasticities of the sterile solutions of hyaluronic acids (molecular weights: 1,900,000 and 800,000) and the conjugates of Examples 2-1, 2-8, 2-18, 2-27, and 2-29 were measured at 37° C. using a cone 4 cm in diameter by a CSL500 stress-controlled rheometer (from Carri-Med Ltd.).

[2] = test system: human synovial cells (HFLS); experiment: Anti-proliferative effect on synovial cells stimulated by TNF-α ([3H]-deoxyuridine uptake); assay type: cell-based; conditions: TNF-α 10 ng/mL, 5 days culture, concentration calculated as MTX from conjugation rate
From the text: An effect of the HA-MTX conjugates of the invention on cell proliferation induced by TNF-α stimulation was examined using human synovial cells (HFLS). The main lesion in rheumatoid arthritis (RA) occurs in the synovial tissue, and, as one of the features, it is known that synovial cells abnormally proliferate to form a granulation tissue (pannus) and thereby destroy the cartilage and bone of the joint. Secondary synovitis is also observed in osteoarthritis (OA). […] Thus, a compound inhibiting the proliferation of synovial cells stimulated by the inflammatory cytokine TNF-α suppresses the progression of the pathologic conditions of RA and OA and becomes a therapeutic drug therefor. The sterile aqueous solutions of the HA-MTX conjugates in Example 2 (Table 2) were used as test substances. HFLS (CA40405, Lot Nos. 1413 and 1493) was purchased from Cell Applications Ins. for use. HFLS was seeded at 5,000 cells/well on a 96-well plate (Falcon) and cultured for 3 hours in Iscove's modified Dulbecco's medium (IMDM) containing 5% FBS and 1× Antibiotic-Antimycotic (GIBOC). After cellular attachment, TNF-α (final concentration: 10 ng/mL) and each HA-MTX conjugate at each concentration was added, followed by cultivation for 5 days. Two days before the end of culture, was added 37 kBq/well of [^3H]-deoxyuridine in the cells (MORAVEK), followed by determining the uptake quantity (radioactivity) of [^3H]-deoxyuridine using a scintillation counter. Cells were recovered by unsticking them with 0.05% trypsin-0.2% EDTA. Radioactivity determined in each of the experiments with each test substance was calculated as a relative value (% of control), using, as control, radioactivity in the group of cells cultured without adding any test substance. […] GraphPad Prism 3.02).

[3] = test system: mBSA-induced monoarthritis model; experiment: Suppressive effect on knee joint swelling in mBSA-induced monoarthritis model; assay type: in vivo, rat; conditions: AUC of knee joint swelling to two weeks after induction; control = HA-treated group; 50 μL into right knee joint 7 and 1 day before and 7 days after induction
Experimental: An in vivo synovitis-suppressing effect of each HA-MTX conjugate of the invention was assessed on the basis of a suppressive effect on knee joint swelling in a methylated bovine serum albumin (mBSA)-induced monoarthritis model of rat. Since the mBSA-induced arthritis model employed in this experimental example is widely used as an antigen-induced arthritis model, and known to develop synovitis (Sven E. Andersson, et al., The Journal of Rheumatology (1998) 25: 9, 1772-7), the in vivo knee joint swelling-suppressing effect observed in this model conceivably represents a synovitis-suppressing effect. The compounds of the invention suppressing synovitis in vivo are useful as therapeutic drugs for joint diseases accompanied by synovitis (RA, OA, and the like).
The animal used was the LEW/Crj rat (6-week old male, from Charles River Laboratories Japan, Inc.). Into the flank of the rat was subcutaneously injected 0.5 mL of an emulsion prepared from a 2 mg/mL mBSA (Calbiochem) aqueous solution and an equal amount of Freund's complete adjuvant (Difco) 21 and 14 days before inducing arthritis. The arthritis was induced by administering 50 μL of a 2 mg/mL mBSA aqueous solution into the right knee joint. The left knee joint was untreated, and served as control in each individual. Each test substance (sterile aqueous solution) and the control drug hyaluronic acid were each administered into the right knee joint in an amount of 50 μL 7 and 1 day before and 7 days after inducing arthritis.
The determination of knee joint swelling involved measuring the widths of both knee joints with calipers to define the left/right difference (right knee diameter-left knee diameter) as a knee joint swelling. The width of each knee joint was measured at a frequency of twice a week from immediately before inducing arthritis to two weeks later to calculate AUC (an abbreviation for Area Under the Curve; here, it means an area under a curve with time for the joint swelling) from the transition thereof with time. At each measurement, the mean and standard deviation of AUC were calculated to perform an unpaired t-test between each test substance-treated group and the HA-treated group, and significant difference was judged to be present if the probability level is less than 5%. Statistical analysis used SAS version 6.12 (SAS Institute Japan). In addition, the AUC of each test substance was calculated, using that in the HA-treated group as a control, as a relative value (% of control) therefor.
To verify the usefulness of the HA-MTX conjugate of the invention, the suppressive effect on joint swelling was compared, in accordance with the method of Example 3, among: 1) a group treated with the HA-MTX conjugate (sterile aqueous solution) prepared in Example 2-2; 2) a group treated with a solution containing MTX of an amount equal to that of MTX contained in the HA-MTX conjugate; and 3) a group of treated with a mixture (HA+MTX) of MTX and hyaluronic acid (HA) of amounts equal to those contained in the conjugate. The transition of knee joint swelling with time in this test is shown in FIG. 2, and the AUC thereof in FIG. 3.

[4] = test system: collagenase-induced arthritis (OA) model; experiment: Suppressive effect on knee joint swelling in collagenase-induced arthritis (OA) model; assay type: in vivo, rat; conditions: AUC of knee joint swelling to 20 days after induction; 50 μL into right knee joint once a week from 7 and 1 day before induction; compared with HA-treated group
Experimental: An in vivo synovitis-suppressing effect of the HA-MTX conjugate was evaluated in collagenase-induced OA model rats. The collagenase-induced OA model is a model in which inflammation has been induced within the knee joint by injecting collagenase into the knee joint to directly digest collagen in cartilage tissue. […] Therefore, the compound of the invention suppressing inflammation in the model and inhibiting cartilage degeneration therein will be useful as a therapeutic drug for OA.
The animal used was the SD/Crj rat (6-week old male, from Charles River Laboratories Japan, Inc.). Into the articular cavity of the right knee was administered 50 μL of 1.5% collagenase (Sigma) solution to induce arthritis. The left knee joint was untreated to use as a control in each individual. Each test substance was administered into the right knee joint in an amount of 50 μL once a week from 7 and 1 day before inducing arthritis.
The determination of knee joint swelling involved measuring the widths of both knee joints with calipers to determine the left/right difference (right knee diameter-left knee diameter), which was defined as a knee joint swelling. The width of each knee joint was measured on the order of twice a week from immediately before inducing arthritis to 20 days later to calculate AUC from a graph showing the transition thereof with time. At each measurement, the mean and standard error of the mean of AUC were calculated to perform an unpaired t-test between each test substance-treated group and the HA-treated group, and significant difference was judged to be present if the probability level is less than 5%.

[5] = test system: arthritis model in which pathosis occurs in the knee joint; experiment: Intra-articular administration to an arthritis model in which pathosis occurs in the knee joint; assay type: in vivo; conditions: intra-articularly administered; summary statement

Substance	viscoelasticity [1]	IC50 [2] [nM]	AUC (% of control) (mean ± SEM) [3]	AUC (% of control) (mean ± SEM) [4]	alleviating effect on synovitis [5]
MTX-α-Ile-NHC10H20O3NH-HA [Example 2-27]	viscoelasticities intermediate between those of the hyaluronic acids having molecular weights of 800,000 and 1,900,000	3100	75.1 ± 6.8 % of control	82.6 ± 5.2 % of control	
MTX-α-PheGly-NHC10H20O3NH-HA [Example 2-18]	viscoelasticities intermediate between those of the hyaluronic acids having molecular weights of 800,000 and 1,900,000	9200	61.5 ± 4.7 % of control	65.9 ± 3.5 % of control	
MTX-α-PhePhe-NHC2H4NH-HA [Example 2-1]	viscoelasticities intermediate between those of the hyaluronic acids having molecular weights of 800,000 and 1,900,000	360	48.5 ± 5.3 % of control	45.7 ± 3.9 % of control	
MTX-α-PhePhe-NHC10H2OO3NH-HA [Example 2-8]	viscoelasticities intermediate between those of the hyaluronic acids having molecular weights of 800,000 and 1,900,000	840	54.9 ± 7.2 % of control	54.8 ± 5.9 % of control	
hyaluronic acid [HA]					not seen with HA

— US8088916B2, “Hyaluronic acid-methotrexate conjugate” (priority 2004, dated 2012)
